Counter-ions that a name gives are not always drawn. Like-named read-outs stand apart in the source and are kept apart here. Where only a bound is given, the exact number is not on record here.

The target in assay [1] is purified human plasma kallikrein (Homo sapiens (Human), UniProt P03952). Description: Plasma kallikrein enzyme inhibition assay (chromogenic substrate S-2302). Type of assay: biochemical.
Assay [2] addresses purified human Factor XIa (Homo sapiens (Human), UniProt P03951). Put plainly: Factor XIa enzyme inhibition assay (chromogenic substrate S-2366).
Method: The effectiveness of compounds of the present invention as inhibitors of the coagulation Factors XIa, VIIa, IXa, Xa, XIIa, plasma kallikrein or thrombin, can be determined using a relevant purified serine protease, respectively, and an appropriate synthetic substrate. The rate of hydrolysis of the chromogenic or fluorogenic substrate by the relevant serine protease was measured both in the absence and presence of compounds of the present invention. […] A decrease in the rate of absorbance or fluorescence change in the presence of inhibitor is indicative of enzyme inhibition. […] The results of this assay are expressed as the inhibitory constant, Ki.
Values of Ki were determined by allowing the protease to react with the substrate in the presence of the inhibitor.
The mark [3] stands for this setting: measured at 25° C. (no asterisk).
Setting [4] is: read-out: Factor XIa Ki, measured at 25° C.

purified human Factor XIa, sequence (P03951 388-625): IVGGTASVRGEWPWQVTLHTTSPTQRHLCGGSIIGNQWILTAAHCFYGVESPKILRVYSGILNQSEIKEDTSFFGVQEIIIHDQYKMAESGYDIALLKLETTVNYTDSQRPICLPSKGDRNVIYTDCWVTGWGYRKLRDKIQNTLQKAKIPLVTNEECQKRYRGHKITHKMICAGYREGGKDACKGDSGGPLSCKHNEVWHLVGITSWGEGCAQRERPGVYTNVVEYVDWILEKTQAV
purified human Factor XIa, sequence (P03951 19-387 partner): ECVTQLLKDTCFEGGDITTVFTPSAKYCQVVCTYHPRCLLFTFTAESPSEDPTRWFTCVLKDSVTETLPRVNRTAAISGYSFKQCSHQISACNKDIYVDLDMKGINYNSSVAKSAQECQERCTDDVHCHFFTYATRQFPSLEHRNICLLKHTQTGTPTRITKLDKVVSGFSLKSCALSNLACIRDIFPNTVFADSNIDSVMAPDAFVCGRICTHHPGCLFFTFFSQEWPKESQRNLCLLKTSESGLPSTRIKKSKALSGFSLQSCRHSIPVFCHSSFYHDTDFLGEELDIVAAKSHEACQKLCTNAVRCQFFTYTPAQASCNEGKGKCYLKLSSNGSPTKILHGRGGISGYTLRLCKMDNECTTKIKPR
purified human plasma kallikrein, sequence (P03952 391-638): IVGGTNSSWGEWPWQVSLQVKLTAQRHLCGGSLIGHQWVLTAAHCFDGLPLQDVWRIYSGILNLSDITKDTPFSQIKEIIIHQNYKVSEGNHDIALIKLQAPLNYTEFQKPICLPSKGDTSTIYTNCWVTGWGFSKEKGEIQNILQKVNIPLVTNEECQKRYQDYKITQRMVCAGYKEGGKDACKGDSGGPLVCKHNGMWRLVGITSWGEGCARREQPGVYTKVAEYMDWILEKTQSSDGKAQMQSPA
purified human plasma kallikrein, sequence (P03952 20-390 partner): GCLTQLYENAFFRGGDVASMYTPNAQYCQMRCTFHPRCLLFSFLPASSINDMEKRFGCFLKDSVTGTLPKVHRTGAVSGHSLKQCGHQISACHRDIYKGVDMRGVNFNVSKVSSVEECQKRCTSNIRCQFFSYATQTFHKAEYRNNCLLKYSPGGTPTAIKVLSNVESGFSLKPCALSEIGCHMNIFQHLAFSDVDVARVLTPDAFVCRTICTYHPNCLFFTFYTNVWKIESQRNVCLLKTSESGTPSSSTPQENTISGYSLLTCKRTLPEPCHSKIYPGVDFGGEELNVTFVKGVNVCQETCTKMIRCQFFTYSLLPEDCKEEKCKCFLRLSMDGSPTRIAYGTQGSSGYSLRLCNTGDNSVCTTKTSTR

On to `CN1CCN(c2cccc3c2CCN(C(=O)c2cn(-c4cccc(Cl)c4F)nn2)C3C(=O)Nc2ccc(C(=O)O)cc2)CC1=O` (racemic) [Example 274, 4-(2-(1-(3-chloro-2-fluorophenyl)-1H-1,2,3-triazole-4-carbonyl)-5-(4-methyl-3-oxopiperazin-1-yl)-1,2,3,4-tetrahydroisoquinoline-1-carboxamido)benzoic acid, TFA salt], for which the Ki (commonly the equilibrium dissociation constant of an inhibitor or competing ligand from its target) in assay [1] (setting [3]) was 4.87 nM; in assay [2] it was under 5 nM.

In the case of `COc1cccc2c1CCN(C(=O)c1cn(-c3cccc(Cl)c3F)nn1)C2C(=O)Nc1ccc(C(=O)O)cc1` (racemic) [Example 275, 4-(2-(1-(3-chloro-2-fluoroplienyl)-1H-1,2,3-triazole-4-carbonyl)-5-methoxy-1,2,3,4-tetrahydroisoquinoline-1-carboxamido)benzoic acid, TFA salt], the figures for the Ki in assay [1] (setting [3]) and in assay [2] were 11.8 nM and 10.7 nM, respectively.

`CN1CCN(c2cccc3c2CCN(C(=O)c2cn(-c4cccc(Cl)c4F)cn2)C3C(=O)Nc2ccc(C(=O)O)cc2)CC1=O` (racemic) [Example 284, 4-(2-(1-(3-chloro-2-fluorophenyl)-1H-imidazole-4-carbonyl)-5-(4-methyl-3-oxopiperazin-1-yl)-1,2,3,4-tetrahydroisoquinoline-1-carboxamido)benzoic acid, TFA salt]: the inhibitory constant (Ki) in assay [1] (setting [3]) is 6.25 nM; in assay [2], under 5 nM.

As for `COC1CCN(c2cccc3c2CCN(C(=O)c2cnn(-c4cccc(Cl)c4F)c2N)C3C(=O)Nc2ccc(C(=O)O)cc2)CC1` (racemic) [Example 309, 4-(2-(5-amino-1-(3-chloro-2-fluorophenyl)-1H-pyrazole-4-carbonyl)-5-(4-methoxypiperidin-1-yl)-1,2,3,4-tetrahydroisoquinoline-1-carboxamido)benzoic acid, 2 TFA salt], the Ki was 28.8 nM in assay [1] (setting [3]) and under 5 nM in assay [2].

For the compound `COC1CCN(c2cccc3c2CCN(C(=O)c2coc(-c4cccc(Cl)c4F)n2)C3C(=O)Nc2ccc(C(=O)O)cc2)CC1` (racemic) [Example 310, 4-(2-(2-(3-chloro-2-fluorophenyl)oxazole-4-carbonyl)-5-(4-methoxypiperidin-1-yl)-1,2,3,4-tetrahydroisoquinoline-1-carboxamido)benzoic acid, TFA salt], the Ki came to 610 nM in assay [1] (setting [3]) and 82 nM in assay [2].

On to `COC1CCN(c2cccc3c2CCN(C(=O)c2cc(-c4cccc(Cl)c4)n[nH]2)C3C(=O)Nc2ccc(C(=O)O)cc2)CC1` (racemic) [Example 311, 4-(2-(3-(3-chlorophenyl)-1H-pyrazole-5-carbonyl)-5-(4-methoxypiperidin-1-yl)-1,2,3,4-tetrahydroisoquinoline-1-carboxamido)benzoic acid, TFA salt], for which the Ki was found to be 787 nM in assay [1] (setting [3]) and 18.4 nM in assay [2].

With `COC1CCN(c2cccc3c2CCN(C(=O)c2cn(-c4c(F)ccc(Cl)c4F)cn2)C3C(=O)Nc2ccc(C(=O)O)cc2)CC1` (racemic) [Example 312, 4-(2-(1-(3-chloro-2,6-difluorophenyl)-1H-imidazole-4-carbonyl)-5-(4-methoxypiperidin-1-yl)-1,2,3,4-tetrahydroisoquinoline-1-carboxamido)benzoic acid, TFA salt], the inhibitory constant (Ki) was 27.3 nM in assay [1] (setting [3]) and under 5 nM in assay [2].

Take `COC1CCN(c2cccc3c2CCN(C(=O)c2cnn(-c4ccncc4)c2N)C3C(=O)Nc2ccc(C(=O)O)cc2)CC1` (racemic) [Example 313, 4-(2-(5-amino-1-(pyridin-4-yl)-1H-pyrazole-4-carbonyl)-5-(4-methoxypiperidin-1-yl)-1,2,3,4-tetrahydroisoquinoline-1-carboxamido)benzoic acid, TFA salt]: the inhibition constant Ki is over 6000 nM in assay [1] (measured at 37° C. (*)) and 4820 nM in assay [2].

With `CN(C)C1CCN(c2cccc3c2CCN(C(=O)c2cn(-c4cccc(Cl)c4F)nn2)[C@@H]3C(=O)Nc2ccc(C(=O)O)cc2)CC1` (single isomer, unassigned) [Example 49, bis-TFA salt], the inhibition constant Ki was 1.39 nM in assay [1] (setting [3]) and under 5 nM in assay [2] (setting [4]).

Regarding `CN(C)C1CCN(c2cccc3c2CCN(C(=O)c2cnn(-c4cccc(Cl)c4F)c2)[C@H]3C(=O)Nc2ccc(C(=O)O)cc2)CC1` (single isomer, unassigned) [Example 51, bis-TFA salt], the inhibition constant (Ki) in assay [1] (setting [3]) was 340 nM; in assay [2] (setting [4]), 54.5 nM.

In the case of `CN(C)C1CCN(c2cccc3c2CCN(C(=O)c2cnn(-c4cccc(Cl)c4F)c2)[C@@H]3C(=O)Nc2ccc(C(=O)O)cc2)CC1` (single isomer, unassigned) [Example 52, bis-TFA salt], the inhibitory constant (Ki) was 1.79 nM in assay [1] (setting [3]) and under 5 nM in assay [2] (setting [4]).

Consider `CN(C)C1CCN(c2cccc3c2CCN(C(=O)c2cn(-c4cccc(Cl)c4F)cn2)[C@H]3C(=O)Nc2ccc(C(=O)O)cc2)CC1` (single isomer, unassigned) [Example 54, bis-TFA salt], for which the inhibition constant Ki was 50.4 nM in assay [1] (setting [3]) and 8.83 nM in assay [2] (setting [4]).

Regarding `CN(C)C1CCN(c2cccc3c2CCN(C(=O)c2cn(-c4cccc(Cl)c4F)cn2)[C@@H]3C(=O)Nc2ccc(C(=O)O)cc2)CC1` (single isomer, unassigned) [Example 55, bis-TFA salt], the Ki is 0.92 nM in assay [1] (setting [3]) and under 5 nM in assay [2] (setting [4]).

Consider `CN(C)C(=O)C1CCN(c2cccc3c2CCN(C(=O)c2cn(-c4cccc(Cl)c4F)nn2)[C@H]3C(=O)Nc2ccc(C(=O)O)cc2)CC1` (single isomer, unassigned) [Example 57, TFA salt], for which the Ki in assay [1] (setting [3]) came out at 276 nM; in assay [2] (setting [4]), 33.1 nM.

With `CN(C)C(=O)C1CCN(c2cccc3c2CCN(C(=O)c2cn(-c4cccc(Cl)c4F)nn2)[C@@H]3C(=O)Nc2ccc(C(=O)O)cc2)CC1` (single isomer, unassigned) [Example 58, TFA salt], the Ki in assay [1] (setting [3]) was 3.24 nM; in assay [2] (setting [4]), under 5 nM.

On to `CN(C)C(=O)C1CCN(c2cccc3c2CCN(C(=O)c2cnn(-c4cccc(Cl)c4F)c2)[C@H]3C(=O)Nc2ccc(C(=O)O)cc2)CC1` (single isomer, unassigned) [Example 60, TFA salt], for which the Ki in assay [1] (setting [3]) amounted to 698 nM; in assay [2] (setting [4]) it was 47.8 nM.

On to `CN(C)C(=O)C1CCN(c2cccc3c2CCN(C(=O)c2cnn(-c4cccc(Cl)c4F)c2)[C@@H]3C(=O)Nc2ccc(C(=O)O)cc2)CC1` (single isomer, unassigned) [Example 61, TFA salt], for which the Ki in assay [1] (setting [3]) is 5.89 nM; in assay [2] (setting [4]) it was under 5 nM.

With `CN(C)C(=O)C1CCN(c2cccc3c2CCN(C(=O)c2cn(-c4cccc(Cl)c4F)cn2)[C@H]3C(=O)Nc2ccc(C(=O)O)cc2)CC1` (single isomer, unassigned) [Example 62, TFA salt], the values for the Ki in assay [1] (setting [3]) and in assay [2] (setting [4]) were 399 nM and 74.6 nM, respectively.

Take `CN(C)C(=O)C1CCN(c2cccc3c2CCN(C(=O)c2cn(-c4cccc(Cl)c4F)cn2)[C@@H]3C(=O)Nc2ccc(C(=O)O)cc2)CC1` (single isomer, unassigned) [Example 63, TFA salt]: the values for the Ki in assay [1] (setting [3]) and in assay [2] (setting [4]) were 2.71 nM and under 5 nM, respectively.

Consider `O=C(O)c1ccc(NC(=O)C2c3cccc(N4CCC(N5CCCC5)CC4)c3CCN2C(=O)C2CC(c3cccc(Cl)c3)=NO2)cc1` (single isomer, unassigned) [Example 203, 4-(2-(3-(3-chlorophenyl)-4,5-dihydroisoxazole-5-carbonyl)-5-(4-(pyrrolidin-1-yl)piperidin-1-yl)-1,2,3,4-tetrahydroisoquinoline-1-carboxamido)benzoic acid, 2 TFA salt], for which the Ki in assay [1] (setting [3]) is 1.29 nM; in assay [2] it was under 5 nM.

As for `O=C(O)c1ccc(NC(=O)C2c3cccc(N4CCC(N5CCCC5)CC4)c3CCN2C(=O)C2CC(c3cccc(Cl)c3)=NO2)cc1` (single isomer, unassigned) [Example 204, 4-(2-(3-(3-chlorophenyl)-4,5-dihydroisoxazole-5-carbonyl)-5-(4-(pyrrolidin-1-yl)piperidin-1-yl)-1,2,3,4-tetrahydroisoquinoline-1-carboxamido)benzoic acid, 2 TFA salt], the inhibition constant (Ki) in assay [1] (setting [3]) was 11 nM; in assay [2] (setting [4]) it was under 5 nM.

`O=C(O)c1ccc(NC(=O)[C@@H]2c3cccc(N4CCC(N5CCCC5=O)CC4)c3CCN2C(=O)[C@H]2CC(c3cccc(Cl)c3F)=NO2)cc1` (single isomer, unassigned) [Example 207, TFA salt]: the figures for the inhibition constant (Ki) in assay [1] (setting [3]) and in assay [2] were 30.9 nM and under 5 nM, respectively.

Consider `O=C(O)c1ccc(NC(=O)C2c3cccc(N4CCC(N5CCCC5=O)CC4)c3CCN2C(=O)[C@H]2CC(c3cccc(Cl)c3F)=NO2)cc1` (single isomer, unassigned) [Example 208, TFA salt], for which the values for the inhibition constant (Ki) in assay [1] (setting [3]) and in assay [2] (setting [4]) were 447 nM and under 5 nM, respectively.

With `CN1CCN(c2cccc3c2CCN(C(=O)C2CC(c4cccc(Cl)c4)=NO2)C3C(=O)Nc2ccc(C(=O)O)cc2)CC1` (single isomer, unassigned) [Example 216, 4-(2-(3-(3-chlorophenyl)-4,5-dihydroisoxazole-5-carbonyl)-5-(4-methylpiperazin-1-yl)-1,2,3,4-tetrahydroisoquinoline-1-carboxamido)benzoic acid, 2 TFA salt], the Ki in assay [1] (setting [3]) was 0.36 nM; in assay [2], under 5 nM.

Take `COC1CCN(c2cccc3c2CCN(C(=O)[C@H]2CC(c4cccc(Cl)c4F)=NO2)[C@@H]3C(=O)Nc2ccccc2F)CC1` (single isomer, unassigned) [Example 235, TFA salt]: the Ki came to 478 nM in assay [1] (measured at 37° C. (*)) and 23.2 nM in assay [2].

`COC1CCN(c2cccc3c2CCN(C(=O)[C@H]2CC(c4cccc(Cl)c4F)=NO2)[C@H]3C(=O)Nc2ccccc2F)CC1` (single isomer, unassigned) [Example 236, TFA salt]: the inhibitory constant (Ki) in assay [1] (measured at 37° C. (*)) was over 4340 nM; in assay [2], 454 nM.

Consider `COC1CCN(c2cccc3c2CCN(C(=O)[C@H]2CC(c4cccc(Cl)c4F)=NO2)[C@@H]3C(=O)Nc2cccc(F)c2)CC1` (single isomer, unassigned) [Example 237, TFA salt], for which the results for the inhibitory constant (Ki) in assay [1] (measured at 37° C. (*)) and in assay [2] were 130 nM and 15.3 nM, respectively.

For the compound `COC1CCN(c2cccc3c2CCN(C(=O)[C@H]2CC(c4cccc(Cl)c4F)=NO2)[C@H]3C(=O)Nc2cccc(F)c2)CC1` (single isomer, unassigned) [Example 238, TFA salt], the Ki was over 4340 nM in assay [1] (measured at 37° C. (*)) and 635 nM in assay [2].

Values taken from patent US9738655B2, “Tetrahydroisoquinolines containing substituted azoles as factor XIa inhibitors” (BRISTOL-MYERS SQUIBB COMPANY, priority 2013, dated 2017).
